# Earlier results as cited in US20010014678A1, “Nicotine addiction treatment” (CARY MEDICAL CORPORATION, priority 1997, published 2001).
compound,measurement,setting,value
CN1CCCC1c1cccnc1 (centres unmarked) [nicotine],metabolic half-life,in vivo,roughly 2 hours
same,nicotine in venous blood,provided by one cigarette,5 to 30 ng/mL
